Results as given in PubChem BioAssay AID328 (DTP/NCI, 2004).
Values joined by “and” are separate entries in the source; they are usually repeats but may differ in a detail not shown here. Equal entries are not always repeated. Inconclusive results and toxic doses are left out. How the source made its calls: active means survival T/C of 150% or more; inactive means T/C below 125% in these data.

Test system: BDF1 mice, P388 leukemia ip, median survival T/C
Test: NCI In Vivo Anticancer Drug Screen. Data for tumor model P388 Leukemia (intraperitoneal) in B6D2F1 (BDF1) mice
Conditions: endpoint: median survival time, higher = longer survival
Summary of the method: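 Read-out is survival of treated animals expressed relative to the vehicle group, as a T/C ratio.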

[1] = dose: 400.0 mg/kg/injection, schedule: Q01DX009 (ip), vehicle: saline
[2] = dose: 50.0 mg/kg/injection, schedule: Q01DX009 (ip), vehicle: saline with Tween-80

Measured: T/C

CCCCCCCCCCCCCCC(F)C(=O)OC (configuration not stated)
inactive: dose: 25.0 mg/kg/injection, schedule: Q01DX009 (sc), vehicle: olive oil, sesame oil, peanut oil 95 % of control | dose: 50.0 mg/kg/injection, schedule: Q01DX009 (sc), vehicle: olive oil, sesame oil, peanut oil 86 % of control | dose: 50.0 mg/kg/injection, schedule: Q04DX003 (sc), vehicle: olive oil, sesame oil, peanut oil 91 % of control | dose: 100.0 mg/kg/injection, schedule: Q01DX009 (sc), vehicle: olive oil, sesame oil, peanut oil 100 % of control | dose: 100.0 mg/kg/injection, schedule: Q04DX003 (sc), vehicle: olive oil, sesame oil, peanut oil 91 % of control

O=C1OC(=O)C2C1C1C3C=CC3C1C21C=C1 (configuration not stated)
inactive: dose: 85.0 mg/kg/injection, schedule: Q04DX003 (ip), vehicle: Klucel (hydroxypropylcellulose) (HPC) 95 % of control | dose: 100.0 mg/kg/injection, schedule: Q01DX001 (ip), vehicle: saline 113 % of control and 116 % of control | dose: 135.0 mg/kg/injection, schedule: Q04DX003 (ip), vehicle: Klucel (hydroxypropylcellulose) (HPC) 104 % of control | dose: 200.0 mg/kg/injection, schedule: Q01DX001 (ip), vehicle: saline 113 % of control | dose: 200.0 mg/kg/injection, schedule: Q04DX003 (ip), vehicle: Klucel (hydroxypropylcellulose) (HPC) 113 % of control | dose: 300.0 mg/kg/injection, schedule: Q04DX003 (ip), vehicle: Klucel (hydroxypropylcellulose) (HPC) 118 % of control | dose: 400.0 mg/kg/injection, schedule: Q01DX001 (ip), vehicle: saline 100 % of control and 104 % of control

S=c1cc(-c2cccs2)ss1
inactive: dose: 50.0 mg/kg/injection, schedule: Q01DX009 (ip), vehicle: saline 109 % of control | dose: 50.0 mg/kg/injection, schedule: Q04DX003 (ip), vehicle: saline 108 % of control | dose: 100.0 mg/kg/injection, schedule: Q01DX009 (ip), vehicle: saline 96 % of control | dose: 100.0 mg/kg/injection, schedule: Q04DX003 (ip), vehicle: saline 115 % of control | dose: 200.0 mg/kg/injection, schedule: Q01DX009 (ip), vehicle: saline 100 % of control | dose: 200.0 mg/kg/injection, schedule: Q04DX003 (ip), vehicle: saline 105 % of control | [1] 91 % of control | dose: 400.0 mg/kg/injection, schedule: Q04DX003 (ip), vehicle: saline 107 % of control

CC(=O)CC(=O)OCc1ccccc1
inactive: dose: 100.0 mg/kg/injection, schedule: Q01DX009 (ip), vehicle: saline with Tween-80 100 % of control | dose: 200.0 mg/kg/injection, schedule: Q01DX009 (ip), vehicle: saline with Tween-80 118 % of control | dose: 400.0 mg/kg/injection, schedule: Q01DX009 (ip), vehicle: saline with Tween-80 100 % of control

COC(=O)CCCCCCCCC(C)c1ccccc1 (configuration not stated)
inactive: dose: 264.0 mg/kg/injection, schedule: Q01DX009 (ip), vehicle: saline 110 % of control | [1] 110 % of control

CCCCCCCCN(c1ccc(I)cc1)S(=O)(=O)c1ccc(C)cc1
inactive: dose: 50.0 mg/kg/injection, schedule: Q04DX003 (ip), vehicle: saline with Tween-80 111 % of control | dose: 100.0 mg/kg/injection, schedule: Q04DX003 (ip), vehicle: saline with Tween-80 111 % of control

CCN(CC)CCOc1ccc(C2=C(c3ccccc3)CCc3cc(OC)ccc32)cc1
inactive: dose: 12.5 mg/kg/injection, schedule: Q01DX009 (ip), vehicle: saline with Tween-80 90 % of control | dose: 25.0 mg/kg/injection, schedule: Q01DX009 (ip), vehicle: saline with Tween-80 90 % of control | [2] 95 % of control and 118 % of control

CC(=O)/C=C\c1ccc(Cl)cc1
inactive: dose: 50.0 mg/kg/injection, schedule: Q01DX009 (ip), vehicle: Klucel (hydroxypropylcellulose) (HPC) 100 % of control | dose: 100.0 mg/kg/injection, schedule: Q01DX009 (ip), vehicle: Klucel (hydroxypropylcellulose) (HPC) 111 % of control | dose: 200.0 mg/kg/injection, schedule: Q01DX009 (ip), vehicle: Klucel (hydroxypropylcellulose) (HPC) 109 % of control | dose: 400.0 mg/kg/injection, schedule: Q01DX009 (ip), vehicle: Klucel (hydroxypropylcellulose) (HPC) 111 % of control

COc1cc2ccc(CC3NCCc4cc5c(cc43)OCO5)cc2cc1OC (configuration not stated)
inactive: dose: 22.0 mg/kg/injection, schedule: Q01DX009 (ip), vehicle: saline with Tween-80 105 % of control | dose: 33.0 mg/kg/injection, schedule: Q01DX009 (ip), vehicle: saline with Tween-80 110 % of control | dose: 50.0 mg/kg/injection, schedule: Q01DX009 (ip), vehicle: other 100 % of control | [2] 115 % of control | dose: 75.0 mg/kg/injection, schedule: Q01DX009 (ip), vehicle: saline with Tween-80 110 % of control | dose: 100.0 mg/kg/injection, schedule: Q01DX009 (ip), vehicle: other 100 % of control | dose: 100.0 mg/kg/injection, schedule: Q04DX003 (ip), vehicle: other 118 % of control | dose: 200.0 mg/kg/injection, schedule: Q04DX003 (ip), vehicle: other 118 % of control
